Results from the CheMixHub ionic liquid set.

Experiment: xn = mol fraction of the nth substance listed
Conditions: 100 kPa

CC[n+]1ccn(C)c1.O=S(=O)([O-])O + Cc1ncc(CO)c(CO)c1O.Cl + O
viscosity [mPa·s]
Conditions	293.15 K	298.15 K	303.15 K	308.15 K	313.15 K
x2 = 0, x1 = 0.0009002	1.048	0.945	0.835	0.758	0.693
x2 = 0, x1 = 0.001799	1.067	0.948	0.855	0.772	0.702
x2 = 0, x1 = 0.002696	1.083	0.963	0.862	0.776	0.707
x2 = 0.000265, x1 = 0.002695	1.088	0.968	0.867	0.781	0.712
x2 = 0.0002728, x1 = 0.0008999	1.052	0.949	0.839	0.762	0.697
x2 = 0.0002827, x1 = 0.001798	1.072	0.953	0.86	0.777	0.707
x2 = 0.0004855, x1 = 0.0008998	1.056	0.953	0.843	0.766	0.701
x2 = 0.0005353, x1 = 0.002694	1.093	0.973	0.872	0.786	0.717
x2 = 0.0005469, x1 = 0.001798	1.077	0.958	0.865	0.782	0.712
x2 = 0.0008161, x1 = 0.0008994	1.062	0.959	0.849	0.772	0.707
x2 = 0.0008296, x1 = 0.002693	1.099	0.979	0.878	0.792	0.723
x2 = 0.0008311, x1 = 0.001797	1.082	0.963	0.87	0.787	0.717
x2 = 0.001096, x1 = 0.0008992	1.067	0.964	0.854	0.777	0.712
x2 = 0.001123, x1 = 0.001797	1.088	0.969	0.877	0.793	0.723
x2 = 0.001138, x1 = 0.002693	1.106	0.986	0.884	0.797	0.729
x2 = 0.001364, x1 = 0.000899	1.073	0.97	0.86	0.784	0.718
x2 = 0.001383, x1 = 0.001796	1.094	0.976	0.882	0.798	0.728
x2 = 0.001395, x1 = 0.002692	1.111	0.992	0.889	0.803	0.734
x2 = 0.001638, x1 = 0.0008987	1.078	0.976	0.866	0.79	0.724
x2 = 0.001641, x1 = 0.001796	1.099	0.981	0.888	0.805	0.734
x2 = 0.001656, x1 = 0.002691	1.117	0.998	0.896	0.808	0.739

CC[n+]1ccn(C)c1.O=S(=O)([O-])O + Cc1ncc(C[n+]2csc(CCO)c2C)c(N)n1.Cl.[Cl-] + O
viscosity [mPa·s]
Conditions	293.15 K	298.15 K	303.15 K	308.15 K	313.15 K	318.15 K
x2 = 0, x1 = 0.0009002	1.05	0.94	0.84	0.76	0.69	0.65
x2 = 0, x1 = 0.001799	1.07	0.95	0.85	0.77	0.7	0.64
x2 = 0, x1 = 0.002696	1.08	0.96	0.86	0.78	0.71	0.64
x2 = 0.0002717, x1 = 0.0008999	1.06	0.95	0.85	0.77	0.7	0.66
x2 = 0.0002739, x1 = 0.001798	1.08	0.96	0.86	0.78	0.71	0.65
x2 = 0.0002783, x1 = 0.002695	1.09	0.97	0.87	0.79	0.72	0.65
x2 = 0.0005451, x1 = 0.0008997	1.07	0.96	0.85	0.78	0.71	0.67
x2 = 0.0005496, x1 = 0.001798	1.09	0.97	0.87	0.79	0.72	0.66
x2 = 0.0005575, x1 = 0.002694	1.1	0.98	0.88	0.8	0.73	0.66
x2 = 0.0008249, x1 = 0.001797	1.1	0.98	0.88	0.8	0.73	0.67
x2 = 0.0008327, x1 = 0.002693	1.11	0.99	0.89	0.81	0.73	0.67
x2 = 0.0008356, x1 = 0.0008994	1.08	0.97	0.86	0.79	0.72	0.68
x2 = 0.00109, x1 = 0.0008992	1.09	0.98	0.87	0.8	0.73	0.68
x2 = 0.001102, x1 = 0.001797	1.11	0.98	0.89	0.81	0.74	0.68
x2 = 0.001112, x1 = 0.002693	1.12	1	0.9	0.81	0.74	0.68
x2 = 0.001362, x1 = 0.000899	1.1	0.99	0.88	0.8	0.74	0.69
x2 = 0.001376, x1 = 0.001796	1.11	0.99	0.9	0.82	0.75	0.69
x2 = 0.001389, x1 = 0.002692	1.13	1.01	0.91	0.82	0.75	0.69
x2 = 0.001634, x1 = 0.0008987	1.1	1	0.89	0.81	0.75	0.7
x2 = 0.001651, x1 = 0.001796	1.12	1	0.91	0.83	0.76	0.7
x2 = 0.001665, x1 = 0.002691	1.14	1.02	0.92	0.83	0.76	0.7
x2 = 0.001907, x1 = 0.0008985	1.11	1.01	0.9	0.82	0.76	0.71
x2 = 0.001926, x1 = 0.001795	1.13	1.01	0.92	0.84	0.77	0.71
x2 = 0.001943, x1 = 0.00269	1.15	1.03	0.93	0.84	0.77	0.71
